Test results published in patent US9719981B2, “RAC1 inhibitors for the treatment of alport glomerular disease” (Father Flanagan's Boys' Home, priority 2012, dated 2017).

Columns and labels:
[1] = test system: FAK; assay: pFAK397 western blot in primary mesangial cells with TAE226; type: cell-based, mouse; conditions: 0.5 and 1.0 μM TAE226, five hours
Method: Primary Mesangial Cells were derived and characterized as previously described (Cosgrove et al., 2008, Am J Pathol; 172: 761-773). Three independent Transwell Migration Assays were performed using 0.5 μM TAE226 as previously described. For pFAK Western Blot^397, cells were maintained on 1% FCS-containing media for two days, overnight in 0.1% BSA (Fraction V, Roche Diagnostics, Mannheim, Germany) and TAE226 added to 0.5 and 1.0 μM. After five hours protein was collected in M-PER™ (Thermo Scientific, Rockford, Ill.) containing Protease Inhibitor Cocktail P8340 at 1:100 (Sigma, St. Louis, Mo.), 5 mM Sodium Fluoride (Sigma), and 2 mM Sodium Orthovanadate (Sigma) and Western Blots run as described below.
Immunoblotting. Ten to fifteen micrograms, of cellular protein, was resolved in a 10% SDS-PAGE and then electrotransfered to PVDF membrane. The membranes were cut in half and the upper half (250 kDa to 75 kDa) used for pFAK/tFAK immunoblotting while the bottom half used for β-actin immunoblotting (loading control). Conditions for pFAK detection: the membrane was blocked in milk blocking solution (5% milk containing 0.2% Tween-20 in PBS) for 1 hour at room temperature with constant shaking and incubated overnight at 4° C. with anti-pFAK 1:1,000 in BSA blocking solution (1% BSA containing 0.2% Tween-20 in PBS). […]

[2] = test system: primary cultured mesangial cells; assay: Transwell Migration Assay of primary mesangial cells with TAE226; type: cell-based, mouse; conditions: 0.5 μM TAE226; relative to untreated cells
Method: MES Migration (insert). Transwell cell migration assays were performed as described by Daniel et al. (Daniel et al., 2012, Lab Invest; 92(6): 812-26) with some modifications. 8 micron, 24-well plate control inserts (BD Bioscience, Bedford, Mass.) were coated overnight at 4° C. with 100 μl of 0.1% gelatin/PBS then washed 1× with PBS. MES cultures were incubated in 1% FCS overnight, then 0.05% BSA-containing media for at least 8 hours, washed 1× with PBS and carefully tryspinized to ensure a single cell suspension and limited “clumping” of cells. After serum-neutralization and subsequent centrifugation, ˜100,000 cells were resuspended in 1.5 mls of 0.05% BSA media containing activators/inhibitors. The wells of a 24-well plate were filled with 0.75 mls of 10% FCS-containing media plus activators/inhibitors (excluding 0.05% BSA control well). 0.5 ml of cell-suspension was loaded into the gelatin-coated insert and the insert placed in a well. Wells were visually inspected for bubbles beneath insert and equal distribution of cell-suspension. Cells were allowed to migrate overnight (˜18 hrs). […] Inserts were air dried and counted at 100× magnification. Five fields were counted on each insert including one center and four periphery areas. Data was expressed as relative to 10% FCS control well (set equal to one). […]

What does the source list for CNC(=O)c1ccccc1Nc1nc(Nc2ccc(N3CCOCC3)cc2OC)ncc1Cl [TAE226]?
pFAK activation in mesangial cells [1]: blocked pFAK activation in a dose-dependent manner; Cell migratory potential of mesangial cells [2]: significantly reduced
